Reference: US20250214951A1, “3-PHENYLISOXAZOLE DERIVATIVE, AND PHARMACEUTICAL COMPOSITION FOR PREVENTING OR TREATING EYE DISEASE, CONTAINING SAME AS ACTIVE INGREDIENT” (VASTHERA CO., LTD., priority 2022, published 2025)

Test system: LC3-II
Experiment: LC3-II production capacity at 10 μM (Table 4)
Type: cell-based
Conditions: Homo sapiens, 12 h
Procedure: ARPE-19 was dispensed into a 6-well plate at a concentration of 1×10^5 cells/well and cultured for 24 hours. Then, cells were treated with example 17 compound of the present invention at concentrations of 10, 25, and 50 μM for 12 hours. Then, a cell lysis buffer containing a protease inhibitor was added to prepare a cell lysate. The LC3-II level was measured by Western immunoblotting using an anti-LC3-II antibody (Cell Signaling Technology, MA, USA). As an internal control, an antibody against β-actin (Cell Signaling Technology) was used and measured by Western immunoblotting in the same manner as above, and is shown in FIG. 6 (upper graph).
The autophagy activation effect of example compounds expected to have autophagy activation ability and low cytotoxicity among the example compounds in Table 2 above in human retinal pigment epithelial cells was evaluated according to Experimental Example 7. That is, the autophagy activation effect through the increase of LC3-II was evaluated in a concentration-dependent manner, and the results are shown in FIGS. 15 and 16.

| SMILES | fold induction at 10 µM |
| --- | --- |
| CCCc1ccc(OC)c(-c2cc(CN3CCC(OC)CC3)on2)c1 [Example 54, 3-(2-methoxy-5-propylphenyl)-5-((4-methoxypiperidine-1-yl)methyl)isoxazole] | 2.8 |
| COc1ccc(C(F)(F)F)cc1-c1cc(C(C)(C)O)on1 [Example 32, 2-(3-(2-methoxy-5-(trifluoromethyl)phenyl)isoxazole-5-yl)propan-2-ol] | 0.9 |
| COc1ccc(C(F)(F)F)cc1-c1cc(CCO)on1 [Example 33, 2-(3-(2-methoxy-5-(trifluoromethyl)phenyl)isoxazole-5-yl)ethan-1-ol] | 1.5 |
| COc1ccc(CCO)cc1-c1cc(CN2CCN(C)CC2)on1 [Example 61, 2-(4-methoxy-3-(5-((4-methylpiperazine-1-yl)methyl)isoxazole-3-yl)phenyl)ethan-1-ol] | 0.9 |
| C=CCc1ccc(OC)c(-c2cc(CN3CCNCC3)on2)c1 [Example 29, 3-(5-allyl-methoxyphenyl)-5-(piperazine-1-ylmethyl)isoxazole] | 5.8 |
| C=C(C)Cc1ccc(OC)c(-c2cc(CO)on2)c1 [Example 68, (3-(2-methoxy-5-(2-methylallyl)phenyl)isoxazole-5-yl)methanol] | 7.7 |
| C=CCc1ccc(-c2cc(CN3CCNCC3)on2)c(OC)c1 [Example 49, 3-(4-allyl-2-methoxyphenyl)-5-(piperazine-1-ylmethyl)isoxazole] | 1.1 |
| C=CCc1ccc(OC(F)(F)F)c(-c2cc(CN3CCNCC3)on2)c1 [Example 51, 3-(5-allyl-2-(trifluoromethoxy)phenyl)-5-(piperazine-1-ylmethyl)isoxazole] | > 15 |
| COc1cc(C(F)(F)F)ccc1-c1cc(CO)on1 [Example 35, (3-(2-methoxy-4-(trifluoromethyl)phenyl)isoxazole-5-yl)methanol] | 1.1 |
| C=CCc1ccc(OC)c(-c2cc(COc3ncnc4ccccc34)on2)c1 [Example 65, 3-(5-allyl-2-methoxyphenyl)-5-((quinazoline-4-yloxy)methyl)isoxazole] | 1.8 |
| COc1ccc(CC=C(C)C)cc1-c1cc(CN2CCN(C)CC2)on1 [Example 69, 3-(2-methoxy-5-(3-methylbut-2-en-1-yl)phenyl)-5-((4-methylpiperazine-1-yl)methyl)isoxazole] | 5 |
| CCCc1ccc(OC)c(-c2cc(CN3CCc4sccc4C3)on2)c1 [Example 56, 5-((6,7-dihydrothieno[3,2-c]pyridin-5(4H)-yl)methyl)-3-(2-methoxy-5-propylphenyl)isoxazole] | 1.5 |
| C=CCc1ccc(-c2cc(CN3CCN(C(=O)OC(C)(C)C)CC3)on2)c(OC)c1 [Example 48, tert-butyl 4-((3-(4-allyl-2-methoxyphenyl)isoxazole-5-yl)methyl)piperazine-1-carboxylate] | > 15 |
| C=CCc1ccc(OC)c(-c2cc(C(C)(C)O)on2)c1 [Example 39, 2-(3-(5-allyl-2-methoxyphenyl)isoxazole-5-yl)propan-2-ol] | 0.7 |
| CCCc1ccc(OC)c(-c2cc(C(C)(C)O)on2)c1 [Example 40, 2-(3-(2-methoxy-5-propylphenyl)isoxazole-5-yl)propan-2-ol] | 1.6 |
| COc1ccc(C(F)(F)F)cc1-c1cc(COCC(=O)O)on1 [Example 36, 2-((3-(2-methoxy-5-(trifluoromethyl)phenyl)isoxazole-5-yl)methoxy)acetic acid] | 2.3 |

| SMILES | fold induction at 10 µM |
| --- | --- |
| COc1ccc(C(C)C)cc1-c1cc(CN2CCN(C(C)=O)CC2)on1 [Example 63, 1-(4-((3-(5-isopropyl-2-methoxyphenyl)isoxazole-5-yl)methyl)piperazine-1-yl)ethan-1-on] | 1.9 |
| CCCc1ccc(OC)c(-c2cc(CN3CCC(C(=O)O)CC3)on2)c1 [Example 55, 1-((3-(2-methoxy-5-propylphenyl)isoxazole-5-yl)methyl)piperidine-4-carboxylic acid] | 1.8 |
| COCCc1ccc(OC)c(-c2cc(CN3CCN(C)CC3)on2)c1 [Example 62, 3-(2-methoxy-5-(2-methoxyethyl)phenyl)-5-((4-methylpiperazine-1-yl)methyl)isoxazole] | 2.4 |
| C=CCc1ccc(OC(F)(F)F)c(-c2cc(CN3CCN(C(=O)OC(C)(C)C)CC3)on2)c1 [Example 50, tert-butyl 4-((3-(5-allyl-2-(trifluoromethoxy)phenyl)isoxazole-5-yl)methyl)piperazine-1-carboxylate] | > 25 |
| CCCc1ccc(OC)c(-c2cc(CN3CCn4ccnc4C3)on2)c1 [Example 57, 5-((5,6-dihydroimidazo[1,2-a]pyrazin-7(8H)-yl)methyl)-3-(2-methoxy-5-propylphenyl)isoxazole] | 1.1 |
| COc1ccc(C(F)(F)F)cc1-c1cc(CO)on1 [Example 31, (3-(2-methoxy-5-(trifluoromethyl)phenyl)isoxazole-5-yl)methanol] | 0.8 |
| C=CCc1ccc(OC(F)(F)F)c(-c2cc(CN3CCN(C)CC3)on2)c1 [Example 52, 3-(5-allyl-2-(trifluoromethoxy)phenyl)-5-((4-methylpiperazine-1-yl)methyl)isoxazole] | > 13 |
| COc1ccc(C(C)C)cc1-c1cc(CN2CCN(C(=O)OC(C)(C)C)CC2)on1 [Example 46, tert-butyl 4-((3-(5-isopropyl-2-methoxyphenyl)isoxazole-5-yl)methyl)piperazine-1-carboxylate] | 1.5 |
| C=C(C)Cc1ccc(OC)c(-c2cc(CN3CCN(C(=O)OC(C)(C)C)CC3)on2)c1 [Example 66, tert-butyl 4-((3-(2-methoxy-5-(2-methylallyl)phenyl)isoxazole-5-yl)methyl)piperazine-1-carboxylate] | > 18 |
| C=C(C)Cc1ccc(OC)c(-c2cc(CN3CCNCC3)on2)c1 [Example 67, 3-(2-methoxy-5-(2-methylallyl)phenyl)-5-(piperazine-1-ylmethyl)isoxazole] | 22.7 |
| CCCc1ccc(OC)c(-c2cc(CN3C[C@@H](C)O[C@@H](C)C3)on2)c1 [Example 53, (2S,6R)-4-((3-(2-methoxy-5-propylphenyl)isoxazole-5-yl)methyl)-2,6-dimethylmorpholine] | 0.9 |
| C=CCc1ccc(OC(F)(F)F)c(-c2cc(CO)on2)c1 [Example 43, (3-(5-allyl-2-(trifluoromethoxy)phenyl)isooxazole-5-yl)methanol] | 19.7 |
| COc1ccc(N2CCOCC2)cc1-c1cc(CO)on1 [Example 38, (3-(2-methoxy-5-morpholinophenyl)isoxazole-5-yl)methanol] | 1.2 |
| C=CCc1ccc(-c2cc(CO)on2)c(OC)c1 [Example 44, (3-(4-allyl-2-methoxyphenyl)isoxazole-5-yl)methanol] | 3.8 |
| COc1ccc(C(F)(F)F)cc1-c1cc(CN2CCN(C)C(=O)C2)on1 [Example 37, 4-((3-(2-methoxy-5-(trifluoromethyl)phenyl)isoxazole-5-yl)methyl)-1-methylpiperazine-2-on] | 2.2 |
| COc1ccc(C(C)C)cc1-c1cc(CO)on1 [Example 45, (3-(5-isopropyl-2-methoxyphenyl)isoxazole-5-yl)methanol] | 2.5 |
